Test results from patent publication US9630956B2, “Compounds useful as inhibitors of ATR kinase” (Vertex Pharmaceuticals Incorporated, priority 2010, dated 2017).
Like-named read-outs stand apart in the source and are kept apart here.

Molecular target: full-length ATR (Homo sapiens (Human), UniProt Q13535)
Assay: ATR Inhibition Assay (radioactive-phosphate incorporation)
Assay type: biochemical
Protocol: Compounds were screened for their ability to inhibit ATR kinase using a radioactive-phosphate incorporation assay. Assays were carried out in a mixture of 50 mM Tris/HCl (pH 7.5), 10 mM MgCl2 and 1 mM DTT. Final substrate concentrations were 10 μM [γ-33P]ATP (3 mCi 33P ATP/mmol ATP, Perkin Elmer) and 800 μM target peptide ([…]).
Assays were carried out at 25° C. in the presence of 5 nM full-length ATR. An assay stock buffer solution was prepared containing all of the reagents listed above, with the exception of ATP and the test compound of interest. 13.5 μL of the stock solution was placed in a 96 well plate followed by addition of 2 μL of DMSO stock containing serial dilutions of the test compound (typically starting from a final concentration of 15 μM with 3-fold serial dilutions) in duplicate (final DMSO concentration 7%). The plate was pre-incubated for 10 minutes at 25° C. and the reaction initiated by addition of 15 μL [γ-33P]ATP (final concentration 10 μM).
The reaction was stopped after 24 hours by the addition of 30 μL 0.1 M phosphoric acid containing 2 mM ATP. A multiscreen phosphocellulose filter 96-well plate (Millipore, Cat no. MAPHNOB50) was pretreated with 100 μL 0.2M phosphoric acid prior to the addition of 45 μL of the stopped assay mixture. The plate was washed with 5×200 μL 0.2M phosphoric acid. After drying, 100 μL Optiphase ‘SuperMix’ liquid scintillation cocktail (Perkin Elmer) was added to the well prior to scintillation counting (1450 Microbeta Liquid Scintillation Counter, Wallac).
After removing mean background values for all of the data points, Ki(app) data were calculated from non-linear regression analysis of the initial rate data using the Prism software package (GraphPad Prism version 3.0cx for Macintosh, GraphPad Software, San Diego Calif., USA).
Below is a chart showing the ATR Inhibition Ki values of compounds of the disclosure.

[1] = ATR Inhibition Ki(app), 10 μM ATP, 800 μM target peptide, 5 nM full-length ATR, 25° C.

full-length ATR, sequence (Q13535 whole entry): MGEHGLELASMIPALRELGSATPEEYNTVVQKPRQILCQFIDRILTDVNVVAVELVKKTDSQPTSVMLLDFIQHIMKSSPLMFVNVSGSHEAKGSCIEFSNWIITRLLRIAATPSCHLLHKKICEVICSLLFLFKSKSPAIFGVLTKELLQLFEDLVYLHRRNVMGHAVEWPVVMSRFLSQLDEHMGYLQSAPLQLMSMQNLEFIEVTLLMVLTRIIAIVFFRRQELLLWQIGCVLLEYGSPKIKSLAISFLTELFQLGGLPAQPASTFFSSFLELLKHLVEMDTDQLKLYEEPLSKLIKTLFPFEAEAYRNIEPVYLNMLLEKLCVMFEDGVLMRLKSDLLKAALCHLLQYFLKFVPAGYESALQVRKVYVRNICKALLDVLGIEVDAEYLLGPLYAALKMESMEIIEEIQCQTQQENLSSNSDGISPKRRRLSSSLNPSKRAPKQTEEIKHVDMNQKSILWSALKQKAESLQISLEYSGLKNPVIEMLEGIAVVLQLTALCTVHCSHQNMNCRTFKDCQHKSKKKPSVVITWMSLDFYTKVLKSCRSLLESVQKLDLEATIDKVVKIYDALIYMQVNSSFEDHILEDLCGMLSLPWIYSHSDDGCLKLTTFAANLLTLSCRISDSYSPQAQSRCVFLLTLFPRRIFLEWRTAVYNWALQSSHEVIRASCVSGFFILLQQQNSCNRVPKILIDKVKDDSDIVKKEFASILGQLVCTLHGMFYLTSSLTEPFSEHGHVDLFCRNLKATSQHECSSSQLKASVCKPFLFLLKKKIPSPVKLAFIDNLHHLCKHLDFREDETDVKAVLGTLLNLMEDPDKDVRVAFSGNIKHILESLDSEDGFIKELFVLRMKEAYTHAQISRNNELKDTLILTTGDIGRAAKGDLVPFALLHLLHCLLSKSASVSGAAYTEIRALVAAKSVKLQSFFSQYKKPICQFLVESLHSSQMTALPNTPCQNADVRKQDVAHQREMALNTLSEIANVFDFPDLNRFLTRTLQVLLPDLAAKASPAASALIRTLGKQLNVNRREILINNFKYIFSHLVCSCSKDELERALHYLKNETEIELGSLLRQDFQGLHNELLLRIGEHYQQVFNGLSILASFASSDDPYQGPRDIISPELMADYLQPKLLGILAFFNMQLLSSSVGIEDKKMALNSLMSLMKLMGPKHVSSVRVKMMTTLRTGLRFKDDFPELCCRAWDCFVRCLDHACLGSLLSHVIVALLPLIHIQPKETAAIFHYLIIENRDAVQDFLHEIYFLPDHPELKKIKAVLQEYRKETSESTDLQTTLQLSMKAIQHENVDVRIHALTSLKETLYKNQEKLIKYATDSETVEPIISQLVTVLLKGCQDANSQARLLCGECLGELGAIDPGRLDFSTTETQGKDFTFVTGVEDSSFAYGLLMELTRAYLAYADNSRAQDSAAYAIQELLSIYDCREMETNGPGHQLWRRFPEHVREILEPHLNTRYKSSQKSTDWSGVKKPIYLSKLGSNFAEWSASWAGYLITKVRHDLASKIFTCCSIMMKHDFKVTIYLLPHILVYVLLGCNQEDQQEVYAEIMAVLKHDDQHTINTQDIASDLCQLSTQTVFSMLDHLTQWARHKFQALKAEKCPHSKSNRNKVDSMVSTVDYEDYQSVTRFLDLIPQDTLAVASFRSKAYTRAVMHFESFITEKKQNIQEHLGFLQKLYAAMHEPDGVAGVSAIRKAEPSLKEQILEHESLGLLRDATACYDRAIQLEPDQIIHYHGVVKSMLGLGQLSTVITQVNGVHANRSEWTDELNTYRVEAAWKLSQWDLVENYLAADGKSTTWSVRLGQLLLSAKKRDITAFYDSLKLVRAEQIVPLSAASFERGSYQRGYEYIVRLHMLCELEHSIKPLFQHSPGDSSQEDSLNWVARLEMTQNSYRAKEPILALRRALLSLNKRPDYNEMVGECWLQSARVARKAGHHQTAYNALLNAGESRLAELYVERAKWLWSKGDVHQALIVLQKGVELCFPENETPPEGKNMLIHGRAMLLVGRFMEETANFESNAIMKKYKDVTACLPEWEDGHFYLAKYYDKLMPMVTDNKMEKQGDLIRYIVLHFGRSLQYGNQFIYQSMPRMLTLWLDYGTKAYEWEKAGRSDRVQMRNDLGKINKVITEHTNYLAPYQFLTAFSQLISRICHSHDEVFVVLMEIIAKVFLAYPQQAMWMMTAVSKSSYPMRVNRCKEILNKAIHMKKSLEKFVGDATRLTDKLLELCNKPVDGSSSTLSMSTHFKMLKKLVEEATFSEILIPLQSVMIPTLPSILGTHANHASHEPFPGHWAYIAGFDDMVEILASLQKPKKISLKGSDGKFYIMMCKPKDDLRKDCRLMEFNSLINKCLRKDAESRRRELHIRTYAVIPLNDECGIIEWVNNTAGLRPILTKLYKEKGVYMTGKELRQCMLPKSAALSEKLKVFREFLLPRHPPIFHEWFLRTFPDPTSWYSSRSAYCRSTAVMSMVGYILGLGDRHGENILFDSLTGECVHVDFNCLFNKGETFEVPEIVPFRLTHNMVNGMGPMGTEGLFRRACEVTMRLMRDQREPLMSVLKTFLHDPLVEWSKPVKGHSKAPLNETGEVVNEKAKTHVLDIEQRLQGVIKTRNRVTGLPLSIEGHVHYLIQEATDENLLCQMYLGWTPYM

## CNCc1ccc(-c2nnc(-c3nc(-c4ccc(=O)n(C)c4)cnc3N)o2)cc1 [Compound I-1]
[1]
  Ki: 5 to 50 nM

## CNCc1ccc(-c2nnc(-c3nc(-c4ccc(=O)n(CCOC)c4)cnc3N)o2)cc1 [Compound I-2]
  Ki: 5 to 50 nM

## CNCc1ccc(-c2nnc(-c3nc(-c4ccc(=O)n(CCO)c4)cnc3N)o2)cc1 [Compound I-4]
  Ki: 5 to 50 nM

## CNCc1ccc(-c2nnc(-c3nc(-c4ccc(=O)n(CCCN)c4)cnc3N)o2)cc1 [Compound I-5]
  Ki: 50 to 100 nM

## CNCc1ccc(-c2nnc(-c3nc(-c4ccc(=O)n(CC#N)c4)cnc3N)o2)cc1 [Compound I-7]
[1]
  Ki: 5 to 50 nM

## CNCc1ccc(-c2nnc(-c3nc(-c4ccc(=O)n(C5CCOC5)c4)cnc3N)o2)c(OC)c1 (stereo not shown) [Compound I-8]
  Ki: 5 to 50 nM

## CNCc1ccc(-c2nnc(-c3nc(-c4ccc(=O)n(C5CCOC5)c4)cnc3N)o2)cc1 (stereo not shown) [Compound I-9]
  Ki: 5 to 50 nM

## CNCc1ccc(-c2nnc(-c3nc(-c4ccc(=O)n(C(C)C)c4)cnc3N)o2)c(F)c1 [Compound I-10]
[1]
  Ki: ≤ 5 nM

## CNCc1ccc(-c2nnc(-c3nc(-c4ccc(=O)n(C(C)C)c4)cnc3N)o2)c(C)c1 [Compound I-12]
[1]
  Ki: ≤ 5 nM

## Cc1cc(CN[C@H]2CCOC2)ccc1-c1nnc(-c2nc(-c3ccc(=O)n(C(C)C)c3)cnc2N)o1 [Compound I-13, 5-[5-amino-6-[5-[2-methyl-4-[[[(3S)-tetrahydrofuran-3-yl]amino]methyl]phenyl]-1,3,4-oxadiazol-2-yl]pyrazin-2-yl]-1-isopropyl-pyridin-2-one]
[1]
  Ki: ≤ 5 nM

## CNCc1ccc(-c2nnc(-c3nc(-c4ccc(=O)n(C5CCCC5)c4)cnc3N)o2)c(C)c1 [Compound I-14]
[1]
  Ki: ≤ 5 nM

## CNCc1ccc(-c2nnc(-c3nc(-c4ccc(=O)n(C(C)C#N)c4)cnc3N)o2)c(C)c1 (stereo not shown) [Compound I-16]
[1]
  Ki: ≤ 5 nM

## CNCc1ccc(-c2nnc(-c3nc(-c4ccc(=O)n(C(C)COC)c4)cnc3N)o2)c(C)c1 (stereo not shown) [Compound I-17]
[1]
  Ki: ≤ 5 nM

## CNCc1ccc(-c2nnc(-c3nc(-c4ccc(=O)n(C(C)C5CC5)c4)cnc3N)o2)c(C)c1 (stereo not shown) [Compound I-18]
[1]
  Ki: ≤ 5 nM

## CCn1cc(-c2cnc(N)c(-c3nnc(-c4ccc(CNC)cc4OC)o3)n2)ccc1=O [Compound I-19]
[1]
  Ki: ≤ 5 nM

## Cc1cc(CNC(C)C)ccc1-c1nnc(-c2nc(-c3ccc(=O)n(C(C)C)c3)cnc2N)o1 [Compound I-20]
[1]
  Ki: ≤ 5 nM

## Cc1cc(CNC(C)(C)C)ccc1-c1nnc(-c2nc(-c3ccc(=O)n(C(C)C)c3)cnc2N)o1 [Compound I-21]
[1]
  Ki: ≤ 5 nM

## CC(C)n1cc(-c2cnc(N)c(-c3cc(-c4ccc(CN[C@H]5CCOC5)cc4)no3)n2)ccc1=O [Compound I-23]
[1]
  Ki: ≤ 5 nM

## CNCc1ccc(-c2nnc(-c3nc(-c4ccc(=O)n(CCN(C)C)c4)cnc3N)o2)c(C)c1 [Compound I-24, 5-[5-amino-6-[5-[2-methyl-4-(methylaminomethyl)phenyl]-1,3,4-oxadiazol-2-yl]pyrazin-2-yl]-1-(2-dimethylaminoethyl)pyridin-2-one]
  Ki: 5 to 50 nM

## CCC(C)n1cc(-c2cnc(N)c(-c3nnc(-c4ccc(CNC)cc4OC)o3)n2)ccc1=O (stereo not shown) [Compound I-25]
[1]
  Ki: ≤ 5 nM

## CNCc1ccc(-c2nnc(-c3nc(-c4ccc(=O)n(CC(C)C)c4)cnc3N)o2)c(OC)c1 [Compound I-26]
[1]
  Ki: ≤ 5 nM

## CNCc1ccc(-c2nnc(-c3nc(-c4ccc(=O)n(CC(F)(F)F)c4)cnc3N)o2)c(C)c1 [Compound I-27]
[1]
  Ki: ≤ 5 nM

## CNCc1ccc(-c2nnc(-c3nc(-c4ccc(=O)n(CC(F)(F)F)c4)cnc3N)o2)c(OC)c1 [Compound I-28]
[1]
  Ki: ≤ 5 nM

## CNCc1ccc(-c2cc(-c3nc(-c4ccc(=O)n(C(C)C)c4)cnc3N)on2)c(F)c1 [Compound I-29]
[1]
  Ki: ≤ 5 nM

## CC#CC(C)n1cc(-c2cnc(N)c(-c3nnc(-c4ccc(CNC)cc4C)o3)n2)ccc1=O (stereo not shown) [Compound I-30]
[1]
  Ki: ≤ 5 nM

## CNCc1ccc(-c2nnc(-c3nc(-c4ccc(=O)n(C(C)CF)c4)cnc3N)o2)c(C)c1 (stereo not shown) [Compound I-31]
[1]
  Ki: 5 to 50 nM

## CNCc1ccc(-c2nnc(-c3nc(-c4ccc(=O)n(C5CCC5)c4)cnc3N)o2)c(C)c1 [Compound I-33]
[1]
  Ki: ≤ 5 nM

## CNCc1ccc(-c2nnc(-c3nc(-c4ccc(=O)n(C(C)C#N)c4)cnc3N)o2)c(OC)c1 (stereo not shown) [Compound I-34, 2-[5-[5-amino-6-[5-[2-methoxy-4-(methylaminomethyl)phenyl]-1,3,4-oxadiazol-2-yl]pyrazin-2-yl]-2-oxo-1-pyridyl]propanenitrile]
[1]
  Ki: ≤ 5 nM

## COc1cc(CNC(C)(C)C)ccc1-c1nnc(-c2nc(-c3ccc(=O)n(C(C)C)c3)cnc2N)o1 [Compound I-35]
[1]
  Ki: ≤ 5 nM

## CNCc1ccc(-c2nnc(-c3nc(-c4ccc(=O)n(C(C)CO)c4)cnc3N)o2)c(OC)c1 (stereo not shown) [Compound I-36]
[1]
  Ki: ≤ 5 nM

## CNCc1ccc(-c2nnc(-c3nc(-c4ccc(=O)n(C(C)C(=O)O)c4)cnc3N)o2)c(C)c1 (stereo not shown) [Compound I-38, 2-[5-[5-amino-6-[5-[2-methyl-4-(methylaminomethyl)phenyl]-1,3,4-oxadiazol-2-yl]pyrazin-2-yl]-2-oxo-1-pyridyl]propanoic acid]
  Ki: 5 to 50 nM

## CC(C)n1cc(-c2cnc(N)c(-c3nnc(-c4ccc(CNC(C)(C)C)cc4C#N)o3)n2)ccc1=O [Compound I-40]
[1]
  Ki: 5 to 50 nM

## CNCc1ccc(-c2nnc(-c3nc(-c4ccc(=O)n(C(C)C(F)(F)F)c4)cnc3N)o2)c(OC)c1 (stereo not shown) [Compound I-41]
[1]
  Ki: ≤ 5 nM

## CC(N)c1ccc(-c2nnc(-c3nc(-c4ccc(=O)n(C(C)C)c4)cnc3N)o2)cc1 (stereo not shown) [Compound I-45]
[1]
  Ki: 5 to 50 nM

## CC(C)n1cc(-c2cnc(N)c(-c3nnc(-c4cccc(CNC(C)(C)C)c4)o3)n2)ccc1=O [Compound I-46]
[1]
  Ki: 50 to 100 nM

## CNCc1cccc(-c2nnc(-c3nc(-c4ccc(=O)n(C(C)C)c4)cnc3N)o2)c1 [Compound I-47, 5-[5-amino-6-[5-[3-(methylaminomethyl)phenyl]-1,3,4-oxadiazol-2-yl]pyrazin-2-yl]-1-isopropyl-pyridin-2-one]
  Ki: 5 to 50 nM

## Nc1ncc(-c2ccc(=O)n(C3CCCC3)c2)nc1-c1cc(-c2ccc(CN3CCCC3)cc2)no1 [Compound I-51]
  Ki: 5 to 50 nM

## CC(C)(CO)NCc1ccc(-c2cc(-c3nc(-c4ccc(=O)n(C5CCCC5)c4)cnc3N)on2)cc1 [Compound I-52]
  Ki: 5 to 50 nM

## CNCc1ccc(-c2cc(-c3nc(-c4ccc(=O)n(C5CCCC5)c4)cnc3N)on2)c(F)c1 [Compound I-56]
[1]
  Ki: ≤ 5 nM

## CC(C)n1cc(-c2cnc(N)c(-c3cc(-c4ccc(C(N)CF)cc4)no3)n2)ccc1=O (stereo not shown) [Compound I-59]
[1]
  Ki: 5 to 50 nM

## CC(C)n1cc(-c2cnc(N)c(-c3cc(-c4ccc(CNc5ccccc5)cc4)no3)n2)ccc1=O [Compound I-65]
  Ki: 50 to 100 nM

## CNCc1ccc(-c2cc(-c3nc(-c4ccc(=O)n(C5CCOCC5)c4)cnc3N)on2)cc1 [Compound I-66]
[1]
  Ki: ≤ 5 nM

## C=Cc1cc(-c2cnc(N)c(-c3cc(-c4ccc(CNC)cc4)no3)n2)cn(C(C)C)c1=O [Compound I-67]
[1]
  Ki: 50 to 100 nM

## CNCc1ccc(-c2cc(-c3nc(-c4ccc(=O)n(Cc5ccoc5)c4)cnc3N)on2)cc1 [Compound I-69]
[1]
  Ki: ≤ 5 nM

## CNCc1ccc(-c2cc(-c3nc(-c4ccc(=O)n(CCN5CCCC5=O)c4)cnc3N)on2)cc1 [Compound I-70]
[1]
  Ki: ≤ 5 nM

## CNCc1ccc(-c2cc(-c3nc(-c4cc(Br)c(=O)n(C(C)C)c4)cnc3N)on2)cc1 [Compound I-71]
[1]
  Ki: 5 to 50 nM

## CCc1cc(-c2cnc(N)c(-c3cc(-c4ccc(CNC)cc4)no3)n2)cn(C(C)C)c1=O [Compound I-75]
[1]
  Ki: 50 to 100 nM

## CNCc1ccc(-c2cc(-c3nc(-c4ccc(=O)[nH]c4)cnc3N)on2)cc1 [Compound I-76]
[1]
  Ki: 5 to 50 nM

## CNCc1ccc(-c2cc(-c3nc(-c4ccc(=O)n(C(C)C5CC5)c4)cnc3N)on2)cc1 (stereo not shown) [Compound I-79]
[1]
  Ki: ≤ 5 nM

## CNCc1ccc(-c2cc(-c3nc(-c4ccc(=O)n(Cc5nccs5)c4)cnc3N)on2)cc1 [Compound I-84]
[1]
  Ki: ≤ 5 nM

## CNCc1ccc(-c2cc(-c3nc(-c4ccc(=O)n(Cc5nccn5C)c4)cnc3N)on2)cc1 [Compound I-85]
[1]
  Ki: ≤ 5 nM

## CNCc1ccc(-c2cc(-c3nc(-c4ccc(=O)n(CC5CCCO5)c4)cnc3N)on2)cc1 (stereo not shown) [Compound I-86]
[1]
  Ki: ≤ 5 nM

## CNCc1ccc(-c2cc(-c3nc(-c4c[nH]c(=O)c(CO)c4)cnc3N)on2)cc1 [Compound I-88]
[1]
  Ki: ≤ 5 nM

## CNCc1ccc(-c2cc(-c3nc(-c4ccc(=O)n(C(C)C(=O)NC)c4)cnc3N)on2)cc1 (stereo not shown) [Compound I-91]
[1]
  Ki: ≤ 5 nM

## CNCc1ccc(-c2cc(-c3nc(-c4ccc(=O)n(CCOC)c4)cnc3N)on2)cc1 [Compound I-95]
[1]
  Ki: ≤ 5 nM

## CNCc1ccc(-c2cc(-c3nc(-c4ccc(=O)n(CC(N)=O)c4)cnc3N)on2)cc1 [Compound I-98]
[1]
  Ki: ≤ 5 nM

## CC(C#N)n1cc(-c2cnc(N)c(-c3cc(-c4ccc(CNC5CC5)cc4)no3)n2)ccc1=O (stereo not shown) [Compound I-99]
[1]
  Ki: ≤ 5 nM

## CNCc1ccc(-c2cc(-c3nc(-c4c[nH]c(=O)c(C(C)C)c4)cnc3N)on2)cc1 [Compound I-100]
[1]
  Ki: ≤ 5 nM
